Results: patent US20240226058A1, “STABILIZED CANNABINOID COMPOSITIONS AND METHODS OF PREPARATION THEREOF” (priority 2020, published 2024)

How the values were obtained:
[1] = Cannabinoid stability in cold-brewed coffee with tocopherol-containing emulsions; type: physicochemical; conditions: cold-brewed coffee base (FIG. 5)
Description: FIG. 5 is a graph showing quantified THC content when alpha-tocopherol (Vitamin E, VE) was incorporated into our emulsion alongside THC. Alpha-tocopherol (Vitamin E, VE) was incorporated into the emulsion alongside THC.
FIG. 6 is a graph showing cannabinoid stability testing on a cold-brewed coffee product (20× concentrated base and final product) using two different emulsions containing tocopherols (QNE=our in-house Q-naturale+VitE emulsion; NGAO=Nanogen's (a 3rd party emulsion provider) antioxidant formulation).

[2] = THC content in infused hop water stored at room temperature; type: physicochemical; conditions: for protection of cannabinoid API against oxidative damage: infused beverage, tocopherols emulsified with cannabis oil, ascorbic acid about 0.5-1 mM in aqueous base
[3] = Heat-accelerated (~37° C.) THC stability with aqueous-phase vitamin C and/or EDTA; type: physicochemical; conditions: for THC loss compared to control: vitamin C or EDTA individually, actual hop water base (FIG. 9)
[4] = In-house comparison of oxidation rates of emulsified cannabinoids
[5] = THC loss in RO water at pH 3.6 vs. neutral pH; type: physicochemical; conditions: 20 mg THC/355 mL, citric acid to pH 3.6 (FIG. 4)
Description: FIG. 4 is a graph showing an experiment ruling out pH as a driving factor behind THC loss. Dosed RO water to 20 mg THC/355 mL and used citric acid to pH down to 3.6 (which is the pH of the Infused hop water products) vs. neutral pH (had to bring H2O pH up a bit using sodium carbonate). No difference was observed.

[6] = Color and flavor stability of infused hop water at 37° C. incubation; type: physicochemical

Cc1c(C)c2c(c(C)c1O)CC[C@@](C)(CCC[C@H](C)CCC[C@H](C)CCCC(C)C)O2 [Alpha-tocopherol, alpha-tocopherol]
THC content, emulsion formulated with vs without Vitamin E [1]: no appreciable difference

CCCCCc1cc(O)c2c(c1)OC(C)(C)c1ccc(C)cc1-2 [CBN, cannabinol]
Maximal CBN levels observed ([2]; room temperature infused hop water samples (FIG. 2)): about 20 % of the original THC content

O=C(O)CN(CCN(CC(=O)O)CC(=O)O)CC(=O)O [EDTA, ethylenediaminetetraacetic acid]
THC loss compared to control [3]: able to mitigate THC loss compared to control, but did not fully prevent it

CCCCCc1cc(O)c2c(c1)OC(C)(C)[C@@H]1CCC(C)=C[C@@H]21 [THC, Δ^9-tetrahydrocannabinol, reference compound]
rate of THC loss in high dissolved oxygen (DO) samples ([3]; aerated samples, shaken with air exposure (FIG. 8)): fastest rate of THC loss
rate of THC loss with intentional increase in DO levels ([3]; heat-accelerated, three emulsion formulations (FIG. 10)): faster rates of loss
rate of THC loss ([2]; infused hop water beverages, room temperature, no antioxidants added, linear (FIG. 1)): roughly −0.35 % THC per day
rate of oxidation compared to CBD [4]: drastically faster rates of oxidation
THC loss, pH 3.6 vs neutral pH [5]: No difference

O=C1O[C@H]([C@@H](O)CO)C(O)=C1O [vitamin C, ascorbic acid]
antioxidant efficacy between concentrations ([3]; 0.5-10 mM vitamin C, infused hop water, 4 weeks heat-accelerated (~9 months at RT) (FIG. 11)): little difference
protection to THC ([3]; 30 days @ ~37° C., equivalent to ~10 months at room temperature): sufficient protection
THC (cannabinoid) loss ([3]; Vitamin C 176 ppm=1 mM and/or EDTA 25 ppm in aqueous phase, hop terpene-infused base (FIG. 7)): slowed rates of cannabinoid loss
concentration of vitamin C concluded sufficient ([3]; infused hop water products (FIG. 11)): 500 µM
THC loss compared to control [3]: able to mitigate THC loss compared to control, but did not fully prevent it
protection of cannabinoid API against oxidative damage [2]: ample protection
THC loss compared to tocopherol-only preparations ([2]; room temperature, after roughly five months): negligible amounts of THC loss
color and flavor alterations in the beverage product ([6]; heat-accelerated, 30 days @ ~37° C.): strongly protected against unfavorable color and flavor alterations
formation of off-colors and flavors ([6]; infused hop water, 3 weeks at 37° C., EDTA 25 ppm, vitamin C 176 ppm): largely prevent formation of off-colors and flavors

Tocopherols
protection of cannabinoid API against oxidative damage [2]: not found to suitably mitigate oxidative damage by itself
